# According to PubChem BioAssay (NCI):
#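 Results reflect a 48-hour exposure of cells in 96-well plates to compound at five concentrations. TGI is the concentration that stops growth completely.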
# Tests used:
# Assay in all cases: NCI-60 cell line screen, 48 h
# [1] = test system: BT-549 breast
# [2] = test system: A498 renal
# [3] = test system: HL-60(TB) leukemia
# [4] = test system: SN12C renal
# [5] = test system: OVCAR-3 ovarian
# [6] = test system: OVCAR-4 ovarian
# [7] = test system: MDA-MB-435
# [8] = test system: A549 NSCLC
# [9] = test system: NCI-H23 lung
# [10] = test system: T-47D breast
# [11] = test system: MCF7 breast
# [12] = test system: SNB-75 CNS
# [13] = test system: 786-0 renal
# [14] = test system: MDA-MB-231 breast
SMILES,TGI [1],TGI [2],TGI [3],TGI [4],TGI [5],TGI [6],TGI [7],TGI [8],TGI [9],TGI [10],TGI [11],TGI [12],TGI [13],TGI [14]
COc1cc(/C=C2\N=C(c3ccccc3)N(c3ccc(S(=O)(=O)Nc4nccs4)cc3)C2=O)ccc1O,> 100 µM,> 100 µM,> 100 µM,> 100 µM,> 100 µM,> 100 µM,> 100 µM,> 100 µM,> 100 µM,> 100 µM,> 100 µM,> 100 µM,> 100 µM,
CN(OC(=O)CC(=O)c1ccccc1)C(=O)Cc1ccccc1,,> 100 µM,> 100 µM,> 100 µM,> 100 µM,> 100 µM,,> 100 µM,> 100 µM,,,,> 100 µM,
N#Cc1cccc(Nc2ccccc2SSc2ccccc2Nc2cccc(C#N)c2)c1,,,14.8 µM,> 21.5 µM,> 21.5 µM,> 21.5 µM,18.2 µM,> 21.5 µM,> 21.5 µM,> 21.5 µM,16.5 µM,> 21.5 µM,12 µM,> 21.5 µM
CC(C)OP(=O)(OC(C)C)c1nn(-c2ccc([N+](=O)[O-])cc2)c(=N)s1,,> 100 µM,> 100 µM,> 100 µM,> 100 µM,> 100 µM,,> 100 µM,> 100 µM,,,95.5 µM,,
COC(=O)CC[N+]1([O-])CC1,,> 100 µM,> 100 µM,> 100 µM,,> 100 µM,> 100 µM,> 100 µM,> 100 µM,> 100 µM,> 100 µM,> 100 µM,> 100 µM,> 100 µM
Cc1c2[nH]c3ccc(Br)cc3c2c(C)c2[nH]ccc(=O)c12,,,38.5 µM,32.4 µM,32.2 µM,31.3 µM,,25.7 µM,37.8 µM,,,> 100 µM,25.1 µM,
CC[N+](C)(C)c1ccc(C(=C2C=CC(=[N+](C)C)C=C2)c2ccc(N(C)C)cc2)cc1,,48.4 µM,6 µM,> 100 µM,22.5 µM,38.3 µM,,> 100 µM,55 µM,,,33.8 µM,29 µM,
C=CCN1C(=O)/C(=C/c2ccccc2)N=C1SC/C=C/C,> 100 µM,> 100 µM,,> 100 µM,> 100 µM,> 100 µM,> 100 µM,> 100 µM,> 100 µM,> 100 µM,> 100 µM,> 100 µM,> 100 µM,> 100 µM
CCCCn1c(C)c(C)c2c1NN=C(C#N)S2(=O)=O,> 100 µM,,,> 100 µM,> 100 µM,> 100 µM,> 100 µM,> 100 µM,> 100 µM,> 100 µM,> 100 µM,> 100 µM,> 100 µM,> 100 µM
COC1C(=[N+]=[N-])C(=O)NC(=O)N1C1OC(COC(c2ccccc2)(c2ccccc2)c2ccccc2)C(O)C1O (stereo not drawn),,35.4 µM,46.7 µM,32.7 µM,32.9 µM,27.8 µM,,31.9 µM,34.8 µM,,,29.5 µM,,
CC12CC(=O)OC(Cc3ccccc31)O2 (stereo not drawn),,,> 100 µM,> 100 µM,> 100 µM,,,> 100 µM,> 100 µM,,,> 100 µM,> 100 µM,
CCCOP1(=O)C=C(C)C(Cl)=C(C)C1 (stereo not drawn),,,81.6 µM,58.6 µM,70.3 µM,86.7 µM,,61.3 µM,37 µM,,,92.6 µM,36.7 µM,
CC1=CC(=C(c2ccc(N)c(C)c2)c2ccc(N)c(C)c2)C=CC1=N,,> 100 µM,17.5 µM,4.31 µM,16.7 µM,52.8 µM,,28.6 µM,12.5 µM,,,8.91 µM,21.1 µM,
CC(C)(C)c1ccc(Oc2ccc(C#N)c(C#N)c2)c(C(C)(C)C)c1,,> 100 µM,32.3 µM,> 100 µM,> 100 µM,> 100 µM,,> 100 µM,> 100 µM,,,> 100 µM,> 100 µM,
COc1cccc2c1C(=O)c1c(O)c3c(c(O)c1C2=O)CC(O)(C(C)=O)CC3OC1CC([N+](C)(C)C)C(O)C(C)O1 (stereo not drawn),,> 100 µM,> 100 µM,> 100 µM,> 100 µM,> 100 µM,,> 100 µM,> 100 µM,,,> 100 µM,> 100 µM,
Cc1ccc(-n2nnc3c(NNc4ccccc4)n[nH]c(=O)c32)cc1,> 100 µM,,> 100 µM,> 100 µM,,> 100 µM,> 100 µM,> 100 µM,> 100 µM,,> 100 µM,> 100 µM,> 100 µM,> 100 µM
CN1NC2=NCCN=C3NN(C)C(=NCCN=C1S2)S3,,> 100 µM,> 100 µM,> 100 µM,,> 100 µM,,> 100 µM,> 100 µM,,,> 100 µM,> 100 µM,
COC1=C(OC)C(=O)c2cc(SC)c(=O)c(SC)cc2C1=O,,66.3 µM,3.97 µM,28.7 µM,23.4 µM,24.8 µM,,43.8 µM,20.2 µM,,,28.1 µM,35.2 µM,
